Each block holds one molecule with its values, some of them ahead of it.
Columns and labels:
Assay type in all cases: biochemical
[1] = target: T1, SaEAS (SaEAS-FLAG, secreted SaEASΔSP-FLAG) (Streptomyces albidoflavus, UniProt A0AA37FDV0); experiment: anion-exchange chromatography, competition of PPi acceptors, Km from calculated acceptor-site occupancy; conditions: 5 mM ATP, 5 mM free MgCl2, 0.1 mM MnCl2, pH 7.5, 37 °C
T1 construct: gene ScoT_12220; full-length gene with FLAG tag overexpressed (ermE* promoter) in S. albidoflavus SM254 delta-SaEAS; signal peptide cleaved on secretion; diluted spent medium used without purification
T1 sequence (A0AA37FDV0 entry or part of it, stated change not applied): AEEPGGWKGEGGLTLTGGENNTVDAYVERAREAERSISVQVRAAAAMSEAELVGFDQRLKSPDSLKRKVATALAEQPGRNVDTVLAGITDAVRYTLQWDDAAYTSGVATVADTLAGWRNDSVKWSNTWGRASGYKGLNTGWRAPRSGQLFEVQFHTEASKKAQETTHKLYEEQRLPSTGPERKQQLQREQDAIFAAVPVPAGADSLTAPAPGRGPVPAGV
From the text: anion-exchange chromatography, competition of PPi acceptors, Km from calculated acceptor-site occupancy on SaEAS (SaEAS-FLAG, secreted SaEASΔSP-FLAG) | we then calculated the acceptor-site occupancy and Km for the non-ATP substrate

[2] = target: T1, SaEAS (SaEAS-FLAG, secreted SaEASΔSP-FLAG); experiment: anion-exchange chromatography, initial velocity of pppGpp synthesis; conditions: ATP as PPi donor; 5 mM GTP acceptor, 0.03-1 mM ATP, 5 mM free MgCl2, 0.1 mM MnCl2, pH 7.5, 37 °C, PK/PEP
[3] = target: T1, SaEAS (SaEAS-FLAG, secreted SaEASΔSP-FLAG); experiment: anion-exchange chromatography, initial velocity of pppApp synthesis; conditions: ATP as PPi acceptor (second site); 0.5-10 mM ATP as donor and acceptor, 5 mM free MgCl2, 0.1 mM MnCl2, pH 7.5, 37 °C
From the text: anion-exchange chromatography, initial velocity of pppApp synthesis on SaEAS (SaEAS-FLAG, secreted SaEASΔSP-FLAG) | the Michaelis-Menten relationship provides the Km for ATP as a PPi acceptor

[4] = target: T2, VpEAS (Vibrio parahaemolyticus, UniProt Q87Q55); experiment: anion-exchange chromatography of lysate reaction, pppGpp-2S formation; conditions: 5 mM ATPγS, 1 mM GTPγS, 10 mM MgCl2, 0.1 mM MnCl2, pH 7.5, 37 °C, 5 min
T2 construct: gene VP1295; recombinant from pET29b in E. coli BL21(DE3), cleared lysate
T2 sequence (Q87Q55 entry or part of it): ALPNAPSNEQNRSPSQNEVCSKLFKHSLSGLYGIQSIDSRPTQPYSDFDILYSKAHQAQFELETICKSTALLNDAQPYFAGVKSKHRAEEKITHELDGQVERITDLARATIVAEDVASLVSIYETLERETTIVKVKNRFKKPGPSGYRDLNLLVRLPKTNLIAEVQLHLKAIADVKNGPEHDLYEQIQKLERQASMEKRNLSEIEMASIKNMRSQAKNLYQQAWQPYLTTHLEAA

[5] = target: T1, SaEAS (SaEAS-FLAG, secreted SaEASΔSP-FLAG); experiment: anion-exchange chromatography, competition of PPi acceptors, Km derived from Vmax and Vmax/Km; conditions: PPi acceptor; ATP donor, 5 mM free MgCl2, 0.1 mM MnCl2, pH 7.5, 37 °C; read-out: Km, acceptor(GTP)
From the text: anion-exchange chromatography, competition of PPi acceptors, Km derived from Vmax and Vmax/Km on SaEAS (SaEAS-FLAG, secreted SaEASΔSP-FLAG) | We next used Vmax(pppGpp) to calculate Km, acceptor(GTP).

Structure (SMILES): Nc1ncnc2c1ncn2[C@@H]1O[C@H](COP(=O)(O)OP(=O)(O)O)[C@@H](O)[C@H]1O [ADP]
Km ([1]; 5 mM ADP): 930 ± 40 µM

Structure (SMILES): Nc1ncnc2c1ncn2[C@@H]1O[C@H](COP(=O)(O)O)[C@@H](O)[C@H]1O [AMP]
Km ([1]; 5 mM AMP): 2200 ± 200 µM

Structure (SMILES): Nc1ncnc2c1ncn2[C@@H]1O[C@H](COP(=O)(O)OP(=O)(O)OP(O)(O)=S)[C@@H](O)[C@H]1O [ATPγS]
anion-exchange chromatography of lysate reaction, pppGpp-2S formation ([4]; PPi donor): Reactions were carried out using the non-hydrolyzable thiophosphates ATPγS and GTPγS

Structure (SMILES): Nc1nc2c(ncn2[C@@H]2O[C@H](COP(=O)(O)OP(=O)(O)OP(O)(O)=S)[C@@H](O)[C@H]2O)c(=O)[nH]1 [GTPγS]
anion-exchange chromatography of lysate reaction, pppGpp-2S formation ([4]; PPi acceptor): VpEAS specifically uses GTPγS as an acceptor nucleotide to produce pppGpp-2S

Continued, values first:

Km [2]: 82 µM
Km, aceptor(ATP) [3]: 1400 µM
Structure (SMILES): Nc1ncnc2c1ncn2[C@@H]1O[C@H](COP(=O)(O)OP(=O)(O)OP(=O)(O)O)[C@@H](O)[C@H]1O [ATP]

Km ([1]; 0.5 mM GMP): 64 ± 3 µM
Structure (SMILES): Nc1nc2c(ncn2[C@@H]2O[C@H](COP(=O)(O)O)[C@@H](O)[C@H]2O)c(=O)[nH]1 [GMP]

Km [5]: 50 ± 4 µM
Structure (SMILES): Nc1nc2c(ncn2[C@@H]2O[C@H](COP(=O)(O)OP(=O)(O)OP(=O)(O)O)[C@@H](O)[C@H]2O)c(=O)[nH]1 [GTP]
